Among the data in US20070043049A1, “Substituted heterocyclic diarylamine analogues” (Neurogen Corporation, priority 2003, published 2007) are IC50 values, retold here.

The assay deals with T1, human capsaicin receptor (Homo sapiens, UniProt Q8NER1).
T1 construct: pBK-CMV expression construct encoding the full length human capsaicin receptor; expressed in transfected cells
In words: Calcium mobilization assay, determination of antagonist activity (Example 6). It is filed as cell-based. To be noted: 50% decrease in fluorescence response of cells expressing human capsaicin receptor exposed to capsaicin. How it is done:
A cDNA encoding full length human capsaicin receptor (SEQ ID NO:1, 2 or 3 of U.S. Pat. No. 6,482,611) was subcloned in the plasmid pBK-CMV (Stratagene, La Jolla, Calif.) for recombinant expression in mammalian cells.
Human embryonic kidney (HEK293) cells were transfected with the pBK-CMV expression construct encoding the full length human capsaicin receptor using standard methods. The transfected cells were selected for two weeks in media containing G418 (400 μg/ml) to obtain a pool of stably transfected cells. Independent clones were isolated from this pool by limiting dilution to obtain clonal stable cell lines for use in subsequent experiments.
Cells transfected with expression plasmids (as described in Example 4) and thereby expressing human capsaicin receptor are seeded and grown to 70-90% confluency in FALCON black-walled, clear-bottomed 96-well plates (#3904, BECTON-DICKINSON, Franklin Lakes, N.J.). The culture medium is emptied from the 96 well plates and FLUO-3 AM calcium sensitive dye (Molecular Probes, Eugene, Oreg.) is added to each well (dye solution: 1 mg FLUO-3 AM, 440 μL DMSO and 440 μl 20% pluronic acid in DMSO, diluted 1:250 in Krebs-Ringer HEPES (KRH) buffer (25 mM HEPES, 5 mM KCl, 0.96 mM NaH2PO4, 1 mM MgSO4, 2 mM CaCl2, 5 mM glucose, 1 mM probenecid, pH 7.4), 50 μl diluted solution per well). Plates are covered with aluminum foil and incubated at 37° C. for 1-2 hours in an environment containing 5% CO2. After the incubation, the dye is emptied from the plates, and the cells are washed once with KRH buffer, and resuspended in KRH buffer.
To measure the ability of a test compound to agonize or antagonize a calcium mobilization response in cells expressing capsaicin receptors to capsaicin or other vanilloid agonist, the EC50 of the agonist capsaicin is first determined. An additional 20 μl of KRH buffer and 1 μl DMSO is added to each well of cells, prepared as described above. 100 μl capsaicin in KRH buffer is automatically transferred by the FLIPR instrument to each well. Capsaicin-induced calcium mobilization is monitored using either FLUOROSKAN ASCENT (Labsystems; Franklin, Mass.) or FLIPR (fluorometric imaging plate reader system; Molecular Devices, Sunnyvale, Calif.) instruments. Data obtained between 30 and 60 seconds after agonist application are used to generate an 8-point concentration response curve, with final capsaicin concentrations of 1 nM to 3 μM. KALEIDAGRAPH software (Synergy Software, Reading, Pa.) is used to fit the data to the equation: y=a*(1/(1+(b/x)^c)) to determine the 50% excitatory concentration (EC50) for the response. In this equation, y is the maximum fluorescence signal, x is the concentration of the agonist or antagonist (in this case, capsaicin), a is the Emax, b corresponds to the EC50 value and c is the Hill coefficient. Determination of Agonist Activity
Test compounds are dissolved in DMSO, diluted in 20 μl KRH buffer so that the final concentration of test compounds in the assay well is between 1 μM and 5 μM, and added to cells prepared as described above. The 96 well plates containing prepared cells and test compounds are incubated in the dark, at room temperature for 0.5 to 6 hours. It is important that the incubation not continue beyond 6 hours. Just prior to determining the fluorescence response, 100 μl capsaicin in KRH buffer at twice the EC50 concentration determined as described above is automatically added by the FLIPR instrument to each well of the 96 well plate for a final sample volume of 200 μl and a final capsaicin concentration equal to the EC50. The final concentration of test compounds in the assay wells is between 1 μM and […]. […] The concentration of antagonist required to provide a 50% decrease, relative to the response observed in the presence of capsaicin and without antagonist, is the IC50 for the antagonist, and is preferably below 1 micromolar, 100 nanomolar, 10 nanomolar or 1 nanomolar.
Background: A change in cytosolic calcium serves as a functional read-out for many receptors and channels.

Where only a bound is given, the exact number is not on record here.

T1 sequence (Q8NER1 whole entry): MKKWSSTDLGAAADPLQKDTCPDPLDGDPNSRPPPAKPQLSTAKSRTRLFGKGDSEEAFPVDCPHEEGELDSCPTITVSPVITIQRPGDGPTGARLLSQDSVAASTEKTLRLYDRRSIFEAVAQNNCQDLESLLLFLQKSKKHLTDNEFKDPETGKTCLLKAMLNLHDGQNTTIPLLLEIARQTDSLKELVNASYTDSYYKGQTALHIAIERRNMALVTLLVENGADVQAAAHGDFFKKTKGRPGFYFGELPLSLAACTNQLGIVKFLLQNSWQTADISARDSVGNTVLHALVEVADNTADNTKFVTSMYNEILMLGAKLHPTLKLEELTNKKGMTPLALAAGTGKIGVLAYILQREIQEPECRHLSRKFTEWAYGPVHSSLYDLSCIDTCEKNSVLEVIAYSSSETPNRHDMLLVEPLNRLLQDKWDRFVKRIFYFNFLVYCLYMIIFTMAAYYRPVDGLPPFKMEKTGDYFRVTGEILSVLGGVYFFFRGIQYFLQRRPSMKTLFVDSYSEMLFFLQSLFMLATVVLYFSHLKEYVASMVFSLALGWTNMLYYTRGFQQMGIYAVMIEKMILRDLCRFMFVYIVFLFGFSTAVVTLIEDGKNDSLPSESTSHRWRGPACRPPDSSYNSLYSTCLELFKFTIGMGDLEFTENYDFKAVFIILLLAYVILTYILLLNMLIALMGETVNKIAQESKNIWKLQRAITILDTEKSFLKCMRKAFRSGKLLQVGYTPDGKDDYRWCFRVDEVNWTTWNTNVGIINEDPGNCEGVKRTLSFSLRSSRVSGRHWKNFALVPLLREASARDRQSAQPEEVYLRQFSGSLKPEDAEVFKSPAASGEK

A word on the IC50: it is the midpoint of a concentration-inhibition curve. As for `CC(C)CCNc1nc(Nc2ccc(C(F)(F)F)cc2)nc(N2CCN(c3ncccc3C(F)(F)F)CC2)n1` [Compound 21, N-(3-Methyl-butyl)-N′-(4-trifluoromethyl-phenyl)-6-[4-(3-trifluoromethyl-pyridin-2-yl)-piperazin-1-yl]-[1,3,5]triazine-2,4-diamine], the 50% inhibitory concentration (IC50) was no more than 1000 nM.
To `CCCNc1nc(Nc2ccc(C(F)(F)F)cc2)nc(N2CCN(c3ncccc3Cl)C[C@H]2C)n1` [Compound 22, 6-[4-(3-Chloro-pyridin-2-yl)-2-methyl-piperazin-1-yl]-N-propyl-N′-(4-trifluoromethyl-phenyl)-[1,3,5]triazine-2,4-diamine (R)] belongs no more than 1000 nM; to `FC(F)(F)c1ccc(Nc2nc(N3CCOCC3)nc(N3CCN(c4ncccc4C(F)(F)F)CC3)n2)cc1` [Compound 23, {4-Morpholin-4-yl-6-[4-(3-trifluoromethyl-pyridin-2-yl)-piperazin-1-yl]-[1,3,5]triazin-2-yl}-(4-trifluoromethyl-phenyl)-amine], no more than 1000 nM; to `C[C@@H]1CN(c2ncccc2Cl)CCN1c1nc(Cl)nc(Nc2ccc(C(F)(C(F)(F)F)C(F)(F)F)cc2)n1` [Compound 24, {4-Chloro-6-[4-(3-chloro-pyridin-2-yl)-2-methyl-piperazin-1-yl]-[1,3,5]triazin-2-yl}-[4-(1,2,2,2-tetrafluoro-1-trifluoromethyl-ethyl)-phenyl]-amine (R)], no more than 1000 nM.
On to `CCCNc1nc(Nc2ccc(C(F)(C(F)(F)F)C(F)(F)F)cc2)nc(N2CCN(c3ncccc3Cl)C[C@H]2C)n1` [Compound 25, 6-[4-(3-Chloro-pyridin-2-yl)-2-methyl-piperazin-1-yl]-N-propyl-N′-[4-(1,2,2,2-tetrafluoro-1-trifluoromethyl-ethyl)-phenyl]-[1,3,5]triazine-2,4-diamine (R)], for which the IC50 was no more than 1000 nM.
As for `CC(C)CNc1nc(Nc2ccc(C(F)(C(F)(F)F)C(F)(F)F)cc2)nc(N2CCN(c3ncccc3Cl)C[C@H]2C)n1` [Compound 26, 6-[4-(3-Chloro-pyridin-2-yl)-2-methyl-piperazin-1-yl]-N-isobutyl-N′-[4-(1,2,2,2-tetrafluoro-1-trifluoromethyl-ethyl)-phenyl]-[1,3,5]triazine-2,4-diamine (R)], the figure is no more than 1000 nM; as for `CCC(C)Nc1nc(Nc2ccc(C(F)(C(F)(F)F)C(F)(F)F)cc2)nc(N2CCN(c3ncccc3Cl)C[C@H]2C)n1` (stereo partly drawn) [Compound 27, N-sec-Butyl-6-[4-(3-chloro-pyridin-2-yl)-2-methyl-piperazin-1-yl]-N′-[4-(1,2,2,2-tetrafluoro-1-trifluoromethyl-ethyl)-phenyl]-[1,3,5]triazine-2,4-diamine (R)], no more than 1000 nM; as for `CCCN(C)c1nc(Nc2ccc(C(F)(F)F)cc2)nc(N2CCN(c3ncccc3Cl)C[C@H]2C)n1` [Compound 30, 6-[4-(3-Chloro-pyridin-2-yl)-2-methyl-piperazin-1-yl]-N-methyl-N-propyl-N′-(4-trifluoromethyl-phenyl)-[1,3,5]triazine-2,4-diamine (R)], no more than 1000 nM.
As for `CCCCN(C)c1nc(Nc2ccc(C(F)(F)F)cc2)nc(N2CCN(c3ncccc3Cl)C[C@H]2C)n1` [Compound 31, N-Butyl-6-[4-(3-chloro-pyridin-2-yl)-2-methyl-piperazin-1-yl]-N-methyl-N′-(4-trifluoromethyl-phenyl)-[1,3,5]triazine-2,4-diamine (R)], the IC50 is no more than 1000 nM.
To `C=CCN(CC=C)c1nc(Nc2ccc(C(F)(F)F)cc2)nc(N2CCN(c3ncccc3Cl)C[C@H]2C)n1` [Compound 32, N,N-Diallyl-6-[4-(3-chloro-pyridin-2-yl)-2-methyl-piperazin-1-yl]-N′-(4-trifluoromethyl-phenyl)-[1,3,5]triazine-2,4-diamine (R)] belongs no more than 1000 nM.
As for `CCCN(CCC)c1nc(Nc2ccc(C(F)(F)F)cc2)nc(N2CCN(c3ncccc3Cl)C[C@H]2C)n1` [Compound 33, 6-[4-(3-Chloro-pyridin-2-yl)-2-methyl-piperazin-1-yl]-N,N-dipropyl-N′-(4-trifluoromethyl-phenyl)-[1,3,5]triazine-2,4-diamine (R)], the IC50 was no more than 1000 nM.
